Reference: patent US8722674B2, “1,3,5-triazine-2,4,6-triamine compound or pharmaceutical acceptable salt thereof, and pharmaceutical composition comprising the same” (Hanall Biopharma Co., Ltd., priority 2007, dated 2014)

Experiments:
HepG2 cells [1] = experiment: Measurement of gluconeogenesis (14C-lactate); format: cell-based; conditions: Homo sapiens, 24 h treatment, lower is better, read-out: gluconeogenesis (glucose synthesis ability), % control
Experimental: (§1) Metformin that is widely used in type 2 diabetic patients inhibits the formation of glucose, the synthesis of cholesterol and triglyceride in liver cells and promote the absorption of glucose from blood vessels in the muscle cells. […] In the case of the ability to form cholesterol, triglyceride and glucose, the lower the numerical value, the better the effect. Numerical values for a control group become reference values.
As a hepatic cell model, HepG2 cells were cultured in 10% serum-containing high glucose media, and then treated with each of the compounds for 24 hours. Then, the cells were treated with 0.5 uCi 14C-lactate and 10 mM L-lactate, and cultured for 4 hours. After cultivation, the media of the cells were removed, and the cells were washed with PBS, treated with 0.1N NaOH and left to stand at room temperature for 1 hour. Then, the cells were neutralized with 1N HCl, and the amount of glucose formed in the cells was measured with a liquid scintillation counter. […] A lower measurement value means a stronger blood glucose lowering activity.

HepG2 cells [2] = experiment: Measurement of cholesterol synthesis ability (Amplex red fluorescence); format: cell-based; conditions: for activity at 100 µM: Homo sapiens, HepG2 cells, 24 h treatment, lower is better, read-out: cholesterol synthesis ability, % control
Source text: as §1
(§2) As a hepatic cell model, HepG2 cells were used to measure cholesterol synthesis inhibitory ability, which is the important function of AMPK. The hepatic cell model HepG2 cells were cultured in 1% serum-containing media for 24 hours, and then treated with each of the compounds for 24 hours. Then, the cells were disrupted with lysis buffer (0.1 M potassium phosphate, pH 7.4, 0.05 M NaCl, 5 mM cholic acid, 0.1% Triton X-100). To the disrupted cells, the same volume of a reaction solution (2 U/ml cholesterol oxidizing agent, 2 U/ml peroxidase, 0.2 U/ml cholesterol esterase, and 300 μM Amplex red as a fluorescent factor) was added and allowed to react at 37° C. for 30 minutes. After completion of the reaction, the cells were measured with a fluorometer at a wavelength of 560/590 nm (ex/em), thus quantifying the amount of […] formed in the cells. A lower measurement value means an increased lipid production inhibitory ability.

HepG2 cells [3] = experiment: Measurement of triglyceride (Amplex red fluorescence); format: cell-based; conditions: Homo sapiens, 100 uM, 24 h treatment, lower is better, read-out: triglyceride synthesis ability, % control
Experimental: as §1
as §2, with “model,” for “model, HepG2 cells were used to measure cholesterol synthesis inhibitory ability, which is the important function of AMPK. The hepatic cell model”, “(0.1M” for “(0.1 M”, “(0.76” for “(2”, “glycerol kinase, […] peroxidase, 22.2 U/ml glycerol” for “cholesterol”, “agent,” for “agent, 2 U/ml peroxidase, 0.2 U/ml cholesterol esterase,”

C2C12 cells = experiment: Measurement of glucose absorption (3H-deoxy-glucose); format: cell-based; conditions: for activity at 200 µM / activity at 100 µM: Mus musculus, differentiated C2C12 muscle cells, with 1 μM insulin 24 h, higher is better, read-out: glucose absorption, % control
Source text: as §1
As a muscle cell model, C2C12 cells were induced to differentiate into muscle cells in 2% bovine fetal serum for 6 days. The C2C12 cells which differentiated into muscle cells were treated with each of the compounds in serum-free low glucose media, and then cultured with 1 μM of insulin for 24 hours. After cultivation, the cells were treated with 1 μCi 3H-deoxy-glucose and 10 μM deoxy-glucose at 37° C. for 15 minutes. After treatment, the media were removed, and the cells were washed twice with PBS. The washed cells were treated with 0.1 N NaOH and neutralized with 1N HCl. The amount of glucose absorbed into the cells was measured with a liquid scintillation counter. The effect of the compounds was determined by selecting a compound showing an absorption effect of at least 200%, dividing the absorption effect by the average percent of the control group, and then multiplying the divided value by […]. A higher measurement value means a stronger ability to reduce insulin resistance.

Compound	melting point [°C]	activity at 200 µM (HepG2 cells [1]) [%]	activity at 100 µM (HepG2 cells [2]) [%]	activity at 100 µM (HepG2 cells [3]) [%]	activity at 200 µM (C2C12 cells) [%]	activity at 100 µM (HepG2 cells [1]) [%]	activity at 100 µM (C2C12 cells) [%]	effect on cholesterol synthesis, times better than the control group (HepG2 cells [2]; by comparison of used amounts vs control group (metformin 2 mM))	effect of reducing insulin resistance, times better than the control group (C2C12 cells; absorption effect divided by average percent of control group (metformin 2 mM), multiplied by 20)
CN(C)c1nc(N)nc(NCc2ccoc2)n1 [Example 12, N2-(furan-3-ylmethyl)-N4,N4-dimethyl-1,3,5-triazine-2,4,6-triamine]	151.6 to 152	78.6	92.4	87.7	180	–	–	–	–
Nc1nc(N)nc(NCCc2ccccc2)n1 [Example 13, N2-phenethyl-1,3,5-triazine-2,4,6-triamine]	169.9 to 171.8	99.6	92.3	103	115	–	–	–	–
COc1cc(Nc2nc(N)nc(N(C)C)n2)cc(OC)c1 [Example 16, N2-(3,5-dimethoxyphenyl)-N4,N4-dimethyl-1,3,5-triazine-2,4,6-triamine]	148 to 150	–	66.9	79.5	–	87.6	63.2	–	–
COc1ccc(OC)c(Nc2nc(N)nc(N(C)C)n2)c1 [Example 19, N2-(2,5-dimethoxyphenyl)-N4,N4-dimethyl-1,3,5-triazine-2,4,6-triamine]	213 to 215	–	69.2	74.5	–	116	131	–	–
CC(Nc1nc(N)nc(N(C)C)n1)c1cccc2ccccc12 (centres unmarked) [Example 21, N2,N2-dimethyl-N4-(1-(naphthalen-1-yl)ethyl)-1,3,5-triazine-2,4,6-triamine]	73 to 76	–	56.6	71	–	42.1	140	–	–
CN(C)c1nc(N)nc(Nc2cc(Cl)cc(Cl)c2)n1 [Example 24, N2-(3,5-dichlorophenyl)-N4,N4-dimethyl-1,3,5-triazine-2,4,6-triamine]	240 to 264	–	55.8	41.7	–	49.9	136	–	–
CN(C)c1nc(N)nc(Nc2ccc3c(c2)-c2ccccc2C3)n1 [Example 25, N2-(9H-fluoren-3-yl)-N4,N4-dimethyl-1,3,5-triazine-2,4,6-triamine]	282 to 290	–	76.8	30.2	–	49.5	107	at least 20 times	–
CCCc1ccccc1Nc1nc(N)nc(N(C)C)n1 [Example 26, N2,N2-dimethyl-N4-(2-propylphenyl)-1,3,5-triazine-2,4,6-triamine]	130 to 145	–	62.9	38.6	–	24.7	170	–	–
CCCCCCNc1nc(N)nc(N(C)C)n1 [Example 29, N2-hexyl-N4,N4-dimethyl-1,3,5-triazine-2,4,6-triamine]	142 to 149	–	63.5	41.2	–	16.3	94.5	–	–
CN(C)c1nc(N)nc(N2CCCCCC2)n1 [Example 34, 6-(azepan-1-yl)-N2,N2-dimethyl-1,3,5-triazine-2,4-diamine]	240 to 249	–	52.6	70.9	–	39.4	203	–	about 12 times
CN(C)c1nc(N)nc(Nc2ccccc2-c2ccccc2)n1 [Example 38, N2-(biphenyl-2-yl)-N4,N4-dimethyl-1,3,5-triazine-2,4,6-triamine]	196 to 216	–	55.1	63.3	–	13.8	92.1	–	–

Continued, in another order:

melting point [°C]	Compound	activity at 200 µM (HepG2 cells [1]) [%]	activity at 100 µM (HepG2 cells [2]) [%]	activity at 100 µM (HepG2 cells [3]) [%]	activity at 200 µM (C2C12 cells) [%]	activity at 100 µM (HepG2 cells [1]) [%]	activity at 100 µM (C2C12 cells) [%]	effect on cholesterol synthesis, times better than the control group (HepG2 cells [2]; by comparison of used amounts vs control group (metformin 2 mM))	effect of reducing insulin resistance, times better than the control group (C2C12 cells; absorption effect divided by average percent of control group (metformin 2 mM), multiplied by 20)
139 to 143	Cc1ccc(CNc2nc(N)nc(N(C)C)n2)cc1 [Example 14, N2,N2-dimethyl-N4-(4-methylbenzyl)-1,3,5-triazine-2,4,6-triamine]	–	87.8	92	–	75.4	113	–	–
173 to 176	COc1ccc(Nc2nc(N)nc(N(C)C)n2)cc1 [Example 15, N2,N2-dimethyl-N4-(4-methoxyphenyl)-1,3,5-triazine-2,4,6-triamine]	–	57.1	53.6	–	114	91.1	–	–
105 to 108	CN(C)c1nc(N)nc(Nc2ccc(Br)cc2)n1 [Example 18, N2-(4-bromophenyl)-N4,N4-dimethyl-1,3,5-triazine-2,4,6-triamine]	–	66.4	44.6	–	67	91.5	–	–
164 to 167	CN(C)c1nc(N)nc(Nc2ccc(Cl)cc2)n1 [Example 20, N2-(4-chlorophenyl)-N4,N4-dimethyl-1,3,5-triazine-2,4,6-triamine]	–	56.3	41.4	–	84.9	132	–	–
245 to 255	CN(C)c1nc(N)nc(Nc2ccc3c(c2)CCC3)n1 [Example 23, N2-(2,3-dihydro-1H-inden-5-yl)-N4,N4-dimethyl-1,3,5-triazine-2,4,6-triamine]	–	63	37.2	–	10.7	1.91	–	–
155 to 165	CCCc1ccc(Nc2nc(N)nc(N(C)C)n2)cc1 [Example 27, N2,N2-dimethyl-N4-(4-propylphenyl)-1,3,5-triazine-2,4,6-triamine]	–	63.5	67.4	–	30.9	4.05	–	–
182 to 199	CN(C)c1nc(N)nc(Nc2ccc(F)cc2)n1 [Example 31, N2-(4-fluorophenyl)-N4,N4-dimethyl-1,3,5-triazine-2,4,6-triamine]	–	67.2	69.8	–	80.7	131	–	–
166 to 168	Cc1cccc(Nc2nc(N)nc(N(C)C)n2)c1 [Example 32, N2,N2-dimethyl-N4-m-tolyl-1,3,5-triazine-2,4,6-triamine]	–	34.2	66.6	–	66.8	118	–	–
122 to 143	Cc1ccccc1Nc1nc(N)nc(N(C)C)n1 [Example 33, N2,N2-dimethyl-N4-o-tolyl-1,3,5-triazine-2,4,6-triamine]	–	65.8	91.9	–	95.6	148	–	–
190 to 201	CN(C)c1nc(N)nc(Nc2ccc(-c3ccccc3)cc2)n1 [Example 37, N2-(biphenyl-4-yl)-N4,N4-dimethyl-1,3,5-triazine-2,4,6-triamine]	–	66.8	80.6	–	85.7	151	–	–
